Like-named read-outs stand apart in the source and are kept apart here.
System: C. elegans
Assay: microbe, parasite or virus in culture
Details: Caenorhabditis elegans
[1] = 0 h, read-out: Percentage of motility inhibition 0 h, Table S2, C. elegans SS assay, 110 μM, 0 h, averages of 4 data points
[2] = 24 h, read-out: Percentage of motility inhibition 24 h, Table S2, C. elegans SS assay, 110 μM, 24 h, averages of 4 data points
[3] = 0 h, read-out: Percentage of motility inhibition 0 h
[4] = 24 h, read-out: Percentage of motility inhibition 24 h

Row | Compound | inhibition at 110 µM [1] [%] | inhibition at 110 µM [2] [%] | inhibition at 110 µM [3] [%] | inhibition at 110 µM [4] [%]
1 | O=c1c(-c2ccc(O)cc2)coc2cc(O)cc(O)c12 [Genistein] | 5 | 2 |  | 
2 | CC(CC(=O)C[C@@H](C)[C@H]1CC(=O)[C@@]2(C)C3=C(C(=O)C[C@]12C)[C@@]1(C)CC[C@H](O)C(C)(C)[C@@H]1C[C@@H]3O)C(=O)O (stereo partly drawn) [Ganoderic acid B] | 0 | 20 |  | 
3 | O=C(/C=C/c1ccccc1)c1ccc(O)cc1 [4'‐Hydroxychalcone] | 39 | 15 |  | 
4 | CC(C)[C@H](N)C(=O)O [L-Valine] | 0 | 12 |  | 
5 | O=C1OCCN1/N=C/c1ccc([N+](=O)[O-])o1 [Furazolidone] | 21 | 7 |  | 
6 | Nc1ncnc2c1ccn2[C@@H]1O[C@H](CO)[C@@H](O)[C@H]1O [Tubercidin] | 5 | 0 |  | 
7 | CC(=O)O[C@@H]1[C@H]2[C@H]3C[C@H]4C5=Nc6ccccc6[C@]51C[C@@H]2N4[C@H](C)C3C=O (stereo partly drawn) [Perakine] | 0 | 0 |  | 
8 | COc1cc(C=O)ccc1O [Vanillin] | 24 | 11 |  | 
9 | Oc1c(I)cc(I)c2cccnc12 [Diiodohydroxyquinoline] | 38 | 40 |  | 
10 | C=C1CCC2CC1C2(C)C (stereo not drawn) [β-Pinene] | 2 | 12 |  | 
11 | Oc1cc(O)c2c(c1)O[C@H](c1ccc(O)c(O)c1)[C@H](O)C2 [(‐)‐Epicatechin] | 1 | 23 |  | 
12 | C=CC1=C(C(=O)O)N2C(=O)[C@@H](NC(=O)/C(=N\OCC(=O)O)c3csc(N)n3)[C@H]2SC1 [Cefixime] | 38 | 12 |  | 
13 | O=C1CN(/N=C/c2ccc([N+](=O)[O-])o2)C(=O)N1 [Nitrofurantoin] | 24 | 4 |  | 
14 | C/C(=C\C(=O)CC(C)C(=O)O)[C@H]1CC(=O)[C@@]2(C)C3=C(C(=O)C[C@]12C)[C@@]1(C)CC[C@H](O)C(C)(C)[C@@H]1C[C@@H]3O (stereo partly drawn) [Ganoderenic acid B] | 0 | 42 |  | 
15 | Cc1ccc2[nH]c3ccccc3c2c1 [3‐Methylcarbazole] | 0 | 29 |  | 
16 | Cc1ncc([N+](=O)[O-])n1CC(C)O (stereo not drawn) [Secnidazole] |  |  | 26 | 3
17 | COc1cc2c(cc1OC)-c1c(OC)c(OC)cc3c1[C@H](C2)N(C)CC3 [Glauci ne] | 0 | 11 |  | 
18 | COc1cc(-c2cc(=O)c3c(O)cc(O)cc3o2)ccc1O [Chrysoeriol] | 18 | 1 |  | 
19 | CC[C@H](C)[C@H](N)C(=O)O [L-Isoleucine] | 14 | 17 |  | 
20 | C/C1=C\C[C@]2(C(C)C)CC[C@@](C)(O2)[C@@H](O)CC/C(C)=C/CC1 [Incensole] | 2 | 29 |  | 
21 | CC(C)=CCC[C@@H](C)CC=O [(R)-(+)-Citronellal] | 0 | 8 |  | 
22 | C[C@@H]1O[C@@H](O[C@H]2[C@H](O[C@H]3CC[C@]4(C)[C@H]5CC=C6[C@@H]7CC(C)(C)CC[C@]7(C(=O)O[C@@H]7O[C@H](CO[C@@H]8O[C@H](CO)[C@@H](O[C@@H]9O[C@@H](C)[C@H](O)[C@@H](O)[C@H]9O)[C@H](O)[C@H]8O)[C@@H](O)[C@H](O)[C@H]7O)CC[C@@]6(C)[C@]5(C)CC[C@H]4C3(C)C)OC[C@H](O)[C@@H]2O)[C@H](O)[C@H](O)[C@H]1O [Hederasaponin B] | 11 | 3 |  | 
23 | COc1ccc(C(C)=O)c(O)c1 [Paeonol] |  |  | 0 | 0
24 | C=C1C(=O)O[C@H]2[C@H]1CCC(C)=C1CC[C@@](C)(O)[C@@H]12 [Micheliolide] | 0 | 0 |  | 
25 | O=C(CCc1ccc(O)cc1)c1c(O)cc(O)cc1O[C@@H]1O[C@H](CO)[C@@H](O)[C@H](O)[C@H]1O [Phlorizin] | 0 | 2 |  | 
26 | CC(C)=CCC[C@](C)(O[C@@H]1O[C@H](CO)[C@@H](O)[C@H](O)[C@H]1O)[C@H]1CC[C@]2(C)[C@@H]1[C@H](O)C[C@@H]1[C@@]3(C)CC[C@H](O[C@@H]4O[C@H](CO)[C@@H](O)[C@H](O)[C@H]4O[C@@H]4O[C@H](CO)[C@@H](O)[C@H](O)[C@H]4O)C(C)(C)[C@@H]3CC[C@]12C [Ginsenoside Rd] | 4 | 4 |  | 
27 | OC[C@@H](O)[C@@H](O)[C@H](O)[C@H](O)CO [D-Mannitol] | 11 | 0 |  | 

Row | Compound | inhibition at 110 µM [1] [%] | inhibition at 110 µM [2] [%] | inhibition at 110 µM [3] [%] | inhibition at 110 µM [4] [%]
28 | C=C[C@]1(C)C[C@@H](OC(=O)CS[C@@H]2C[C@H]3CC[C@@H](C2)N3C)[C@]2(C)[C@H](C)CC[C@]3(CCC(=O)[C@H]32)[C@@H](C)[C@@H]1O [Retapamulin] | 27 | 9 |  | 
29 | C/C=C1/C[C@@H](C)[C@@](C)(O)C(=O)OCC2=CC[N+]3([O-])CC[C@@H](OC1=O)[C@@H]23 (stereo partly drawn) [Senecionine N‐oxide] | 39 | 43 |  | 
30 | C[C@@H]1O[C@@H](O[C@H]2[C@H](OC(=O)[C@]34CCC(C)(C)C[C@H]3C3=CC[C@@H]5[C@@]6(C)C[C@H](O)[C@H](O[C@@H]7O[C@H](CO)[C@@H](O)[C@H](O[C@@H]8O[C@H](CO)[C@@H](O)[C@H](O)[C@H]8O)[C@H]7O)C(CO)(CO)[C@@H]6CC[C@@]5(C)[C@]3(C)C[C@H]4O)OC[C@H](O)[C@@H]2O)[C@H](O)[C@H](O)[C@H]1O[C@@H]1OC[C@@H](O)[C@H](O[C@@H]2OC[C@](O)(CO)[C@H]2O)[C@H]1O [Platycodin D2] | 0 | 2 |  | 
31 | Oc1ccc(Cl)c2cccnc12 [Cloxiquine] | 40 | 19 |  | 
32 | CC(C)=CCC[C@](C)(O[C@@H]1O[C@H](CO)[C@@H](O)[C@H](O)[C@H]1O)[C@H]1CC[C@]2(C)[C@@H]1[C@H](O)C[C@@H]1[C@@]3(C)CC[C@H](O)C(C)(C)[C@@H]3[C@@H](O[C@@H]3O[C@H](CO)[C@@H](O)[C@H](O)[C@H]3O)C[C@]12C [Ginsenoside Rg1] | 0 | 0 |  | 
33 | CCCCCCCCCCCCCCCCO [1-Hexadecanol] | 17 | 0 |  | 
34 | C=C[C@@H]1C2=CCOC(=O)C2=CO[C@H]1O[C@@H]1O[C@H](CO)[C@@H](O)[C@H](O)[C@H]1O [Gentiopicroside] | 0 | 19 |  | 
35 | COc1ccc(-c2coc3cc(O[C@@H]4O[C@H](CO)[C@@H](O)[C@H](O)[C@H]4O)ccc3c2=O)cc1 [Ononin] | 10 | 0 |  | 
36 | CCc1nc(N)nc(N)c1-c1ccc(Cl)cc1 [Pyrimethamine] | 35 | 2 |  | 
37 | CC(C)CNC(=O)/C=C/C=C/c1ccc2c(c1)OCO2 [Piperlonguminine] | 34 | 22 |  | 
38 | COc1c(O)cc2occ(-c3ccc(O)cc3)c(=O)c2c1O [Tectorigenin] |  |  | 0 | 0
39 | Cn1c(Cc2ccccc2)nc(=O)c2ccccc21 [Arborine] | 0 | 4 |  | 
40 | CC1=C[C@]2(O)O[C@@]3(CC2=C(C)C)[C@@H](C)CC[C@@H]13 [Curcumenol] | 0 | 38 |  | 
41 | C=C1CC[C@H]2C(=C)CC[C@H]3C(=C)C(=O)O[C@@H]3[C@@H]12 [Dehydrocostus Lactone] | 0 | 24 |  | 
42 | C=C1CC[C@@H]2[C@](C)(CO)CCC[C@@]2(C)[C@@H]1CCC1=CCOC1=O [Andrograpanin] | 3 | 20 |  | 
43 | CCCCCCCCCCCCCCCCCCCCCCO [1‐Docosanol] | 33 | 25 |  | 
44 | O=C(O)c1cccnc1C(=O)O [Quinolinic acid] | 0 | 0 |  | 
45 | O=C(O)c1ccncc1 [Isonicotinic acid] | 0 | 0 |  | 
46 | C[C@H]1[C@H](C)CC[C@]2(C(=O)O)CC[C@]3(C)C(=CC[C@@H]4[C@@]5(C)C[C@@H](O)[C@H](O)[C@@](C)(CO)[C@@H]5CC[C@]43C)[C@H]12 [Asiatic acid] | 41 | 55 |  | 
47 | CNCc1ccccc1 [N‐Methylbenzylamine] | 0 | 4 |  | 
48 | CCOC(=O)c1ccc(O)cc1 [Ethylparaben] | 32 | 8 |  | 
49 | COC(=O)N[C@H](C(=O)N1CCC[C@H]1c1nc(-c2ccc(-c3ccc(-c4c[nH]c([C@@H]5CCCN5C(=O)[C@@H](NC(=O)OC)C(C)C)n4)cc3)cc2)c[nH]1)C(C)C [Daclatasvir] | 44 | 43 |  | 
50 | COC(=O)C1=CO[C@@H](O[C@@H]2O[C@H](CO)[C@@H](O)[C@H](O)[C@H]2O)[C@@H]2[C@@H](C)[C@@H](O)C[C@H]12 [Loganin] | 11 | 15 |  | 
51 | CC(=O)Nc1ncc([N+](=O)[O-])s1 [Nithiamide] | 32 | 7 |  | 
52 | C=C(C)[C@@H]1CC[C@]2(C(=O)O)CC[C@]3(C)[C@H](CC[C@@H]4[C@@]5(C)CC[C@H](OC(=O)CC(C)(C)C(=O)O)C(C)(C)[C@@H]5CC[C@]43C)[C@@H]12 [Bevirimat] | 3 | 30 |  | 
53 | O=C1N[C@@H](Cc2c[nH]c3ccccc23)C(=O)N2CCC[C@@H]12 [Brevianamide F] |  |  | 31 | 18
54 | CN1[C@@H]2CC[C@H]1C[C@@H](O)C2 [Tropine] | 9 | 0 |  | 

Reference: article PMC11855827, “High-Throughput Screening of Five Compound Libraries for Anthelmintic Activity and Toxicity Leads to the Discovery of Two Flavonoid Compounds” (International Journal of Molecular Sciences, 2025)
